Data as given in article PMC5736559, “Dual blockade of the lipid kinase PIP4Ks and mitotic pathways leads to cancer-selective lethality” (Nature Communications, 2017).
Each block holds one compound with its values, some of them ahead of it.

How the values were obtained:
PIP4K2A = PIP4K2A (Homo sapiens, UniProt P48426); test: ADP-Glo kinase assay with purified PIP4K2A and PI([…])P; assay type: biochemical
SNU1 = test: cells; design: MTT cell viability/proliferation assay, absorbance 540 minus 660 nm, GI50 by non-linear regression; settings: Homo sapiens, SNU1; cancer cells, 72 h MTT
Experimental: (§1) Cells were plated in 96-well microplates on day 0, and a131 was added to each well on day 1 at a range of different concentrations (from 0.1 to 40 μM) in triplicate. After 3 days of culture, the number of viable cells was determined using MTT cell proliferation assays by adding thiazolyl blue tetrazolium bromide (MTT reagent, Invitrogen) at a concentration of 0.5 mg/ml to each well and incubating for 4 h at 37 °C. The medium was then removed, and the blue dye remaining in each well was dissolved in DMSO by mixing with a microplate mixer. The absorbance of each well was measured at 540 and 660 nm using a microplate reader (Benchmark plus, Bio-Rad). Optical density (OD) values were calculated by subtracting the absorbance at 660 nm from the absorbance at 540 nm. Mean OD values from control cells containing only DMSO-treated wells were set as 100% viable. […] Mean values with ± standard deviation (S.D.) are shown (n = 3). c, d Normal and transformed BJ cells were treated with a131 at 2.5 μM for 48 h. c FACS analysis using BrdU and PI double staining of the indicated cells. Percentages of BrdU-positive (S) population indicating cell cycle arrest and subG1 (<2N) population indicating cell death are shown. Representative FACS analysis shown (n = 3). d Immunoblot analysis of cleaved PARP and caspase-3 (Cas-3) indicating a131-induced apoptosis in transformed BJ cells (lanes 5, 6), but not normal counterparts (lanes 2, 3). Representative immunoblots shown (n = 3). e MTT assay of human normal and cancer cell lines treated with a131 for 72 h (n = 3). Mean concentration values for a131 to achieve 50% growth inhibition (GI50) in each cell line are plotted with ± S.D. f FACS analysis of a series of engineered BJ-derived fibroblasts treated with a131 at 5 µM for 48 h. Mean values of subG1 (<2N) population ± S.D. are shown (n > 3). g, h Normal and transformed BJ cells stably expressing GFP-histone H2B were treated with a131 at 2.5 μM for 32 h prior to fixation. g Immunofluorescence analysis with representative images (n = 3). h Quantification of cells (n > 100 per condition) with the indicated centrosome numbers. Mean values ± S.D. are shown (n = 3). i Mice bearing established tumor xenografts were treated orally (PO) or intraperitoneally (IP) twice daily with the indicated doses of a131 or its derivative b5. Tumor volumes were calculated periodically as indicated. Paclitaxel (PTX) was administered intravenously for twice every 4 days. Mean tumor volumes ± S.D. from six mice are shown. Two-way ANOVA was performed to determine statistical significance compared to vehicle control. j, k TUNEL staining (j) or immu

AGS = test: cells; design: MTT cell viability/proliferation assay, absorbance 540 minus 660 nm, GI50 by non-linear regression; settings: Homo sapiens, AGS; cancer cells, 72 h MTT
Experimental: as §1

HCT15 = test: cells; design: MTT cell viability/proliferation assay, absorbance 540 minus 660 nm, GI50 by non-linear regression; settings: Homo sapiens, HCT-15; cancer cells, 72 h MTT
Experimental: as §1

HGC27 = test: cells; design: MTT cell viability/proliferation assay, absorbance 540 minus 660 nm, GI50 by non-linear regression; settings: Homo sapiens, HGC-27; cancer cells, 72 h MTT
Experimental: as §1

SNU620 = test: cells; design: MTT cell viability/proliferation assay, absorbance 540 minus 660 nm, GI50 by non-linear regression; settings: SNU620; cancer cells, 72 h MTT
Experimental: as §1

SNU-16 = test: cells; design: MTT cell viability/proliferation assay, absorbance 540 minus 660 nm, GI50 by non-linear regression; settings: Homo sapiens, SNU-16; cancer cells, 72 h MTT
Experimental: as §1

MCF7 = test: cells; design: MTT cell viability/proliferation assay, absorbance 540 minus 660 nm, GI50 by non-linear regression; settings: Homo sapiens, MCF7; cancer cells, 72 h MTT
Experimental: as §1

HT29 = test: cells; design: MTT cell viability/proliferation assay, absorbance 540 minus 660 nm, GI50 by non-linear regression; settings: Homo sapiens, HT-29; cancer cells, 72 h MTT
Experimental: as §1

IM95 = test: cells; design: MTT cell viability/proliferation assay, absorbance 540 minus 660 nm, GI50 by non-linear regression; settings: Homo sapiens, IM95; cancer cells, 72 h MTT
Experimental: as §1

NUGC3 = test: cells; design: MTT cell viability/proliferation assay, absorbance 540 minus 660 nm, GI50 by non-linear regression; settings: Homo sapiens, NUGC-3; cancer cells, 72 h MTT
Experimental: as §1

HCT116 = test: cells; design: MTT cell viability/proliferation assay, absorbance 540 minus 660 nm, GI50 by non-linear regression; settings: Homo sapiens, HCT-116; cancer cells, 72 h MTT
Experimental: as §1

Huh7 = test: cells; design: MTT cell viability/proliferation assay, absorbance 540 minus 660 nm, GI50 by non-linear regression; settings: Homo sapiens, Huh-7; cancer cells, 72 h MTT
Experimental: as §1

A549 = test: cells; design: MTT cell viability/proliferation assay, absorbance 540 minus 660 nm, GI50 by non-linear regression; settings: Homo sapiens, A549; cancer cells, 72 h MTT
Experimental: as §1

NCC59 = test: cells; design: MTT cell viability/proliferation assay, absorbance 540 minus 660 nm, GI50 by non-linear regression; settings: cancer cells, 72 h MTT
Experimental: as §1

SNU449 = test: cells; design: MTT cell viability/proliferation assay, absorbance 540 minus 660 nm, GI50 by non-linear regression; settings: Homo sapiens, SNU-449; cancer cells, 72 h MTT
Experimental: as §1

SNU1750 = test: cells; design: MTT cell viability/proliferation assay, absorbance 540 minus 660 nm, GI50 by non-linear regression; settings: cancer cells, 72 h MTT
Experimental: as §1

NCC24 = test: cells; design: MTT cell viability/proliferation assay, absorbance 540 minus 660 nm, GI50 by non-linear regression; settings: cancer cells, 72 h MTT
Experimental: as §1

HeLa = test: cells; design: MTT cell viability/proliferation assay, absorbance 540 minus 660 nm, GI50 by non-linear regression; settings: Homo sapiens, HeLa; cancer cells, 72 h MTT
Experimental: as §1

MDA-MB-231 = test: cells; design: MTT cell viability/proliferation assay, absorbance 540 minus 660 nm, GI50 by non-linear regression; settings: Homo sapiens, MDA-MB-231; cancer cells, 72 h MTT
Experimental: as §1

PIP4K2C = PIP4K2C (Homo sapiens, UniProt Q8TBX8); test: MS-CETSA thermal shift in normal BJ cell lysate, […] compound; assay type: cell-based
Ferrochelatase = target: T1, Ferrochelatase (Homo sapiens, UniProt P22830); test: MS-CETSA thermal shift in normal BJ cell lysate, […] compound (off-target hit); assay type: cell-based
T1 construct: gene FECH
T1 sequence (P22830 55-423): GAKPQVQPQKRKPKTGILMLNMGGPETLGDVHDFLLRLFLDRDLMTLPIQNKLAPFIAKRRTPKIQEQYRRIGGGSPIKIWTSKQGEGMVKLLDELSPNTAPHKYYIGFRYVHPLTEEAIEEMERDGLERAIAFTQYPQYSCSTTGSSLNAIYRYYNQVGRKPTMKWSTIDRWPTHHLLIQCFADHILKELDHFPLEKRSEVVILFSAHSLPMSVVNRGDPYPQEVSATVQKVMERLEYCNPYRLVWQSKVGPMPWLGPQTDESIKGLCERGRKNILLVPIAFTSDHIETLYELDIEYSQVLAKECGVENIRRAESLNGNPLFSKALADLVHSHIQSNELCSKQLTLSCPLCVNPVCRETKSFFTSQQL

PIP4K2A, sequence (P48426 2-406): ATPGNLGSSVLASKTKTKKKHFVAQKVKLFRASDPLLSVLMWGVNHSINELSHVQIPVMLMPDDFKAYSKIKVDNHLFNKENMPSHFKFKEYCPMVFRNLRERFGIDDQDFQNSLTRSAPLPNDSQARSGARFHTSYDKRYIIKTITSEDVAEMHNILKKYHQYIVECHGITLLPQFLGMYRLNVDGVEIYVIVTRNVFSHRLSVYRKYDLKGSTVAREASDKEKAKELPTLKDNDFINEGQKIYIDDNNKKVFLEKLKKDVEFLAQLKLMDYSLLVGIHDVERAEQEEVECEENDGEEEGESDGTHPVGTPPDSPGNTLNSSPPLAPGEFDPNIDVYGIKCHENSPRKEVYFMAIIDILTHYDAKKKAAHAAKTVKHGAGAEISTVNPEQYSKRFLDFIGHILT
PIP4K2C, sequence (Q8TBX8 2-421): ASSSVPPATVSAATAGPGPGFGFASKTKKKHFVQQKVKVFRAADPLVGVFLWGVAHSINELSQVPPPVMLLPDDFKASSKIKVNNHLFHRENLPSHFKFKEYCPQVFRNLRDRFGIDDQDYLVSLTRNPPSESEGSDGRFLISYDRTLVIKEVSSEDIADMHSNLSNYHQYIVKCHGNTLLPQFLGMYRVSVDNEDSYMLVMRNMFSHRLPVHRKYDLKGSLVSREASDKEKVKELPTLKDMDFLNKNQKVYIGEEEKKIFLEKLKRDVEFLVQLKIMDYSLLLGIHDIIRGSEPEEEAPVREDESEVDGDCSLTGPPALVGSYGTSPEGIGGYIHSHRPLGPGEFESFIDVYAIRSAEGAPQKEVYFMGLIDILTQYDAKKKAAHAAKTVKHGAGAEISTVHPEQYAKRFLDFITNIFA

Structure (SMILES): COc1cc(/C=C(\C#N)C(=O)c2ccc(O)c(O)c2)cc(I)c1O [I-OMe-AG-538]
- IC50 (PIP4K2A): 2100 nM

- GI50 (SNU1): 919 nM
- GI50 (AGS): 1130 nM
- GI50 (HCT15): 545 nM
- GI50 (SNU620): 982 nM
- GI50 (SNU-16): 982 nM
- GI50 (MCF7): 1240 nM
- GI50 (HT29): 915 nM
- GI50 (HCT116): 1840 nM
- GI50 (Huh7): 1180 nM
- GI50 (A549): 1970 nM
- GI50 (SNU449): 2270 nM
- GI50 (SNU1750): 747 nM
- GI50 (HeLa): 1440 nM
- GI50 (MDA-MB-231): 1140 nM
Structure (SMILES): N#C/C(=C\c1cccc2cnccc12)c1c[nH]c2ccccc12 [a131]
- GI50 (HGC27): 1170 nM
- GI50 (IM95): 1040 nM
- GI50 (NUGC3): 1040 nM
- GI50 (NCC59): 944 nM
- GI50 (NCC24): 1230 nM
- MS-CETSA thermal shift in normal BJ cell lysate, 100 μM compound (PIP4K2C): two out of the three family members (PIP4K2A and 2C) in a131
- MS-CETSA thermal shift in normal BJ cell lysate, 100 μM compound (off-target hit) (Ferrochelatase): Ferrochelatase in a131 and coproporphyrinogen-III oxidase in a166 were identified as prominent hits
